Experimental data reported in patent publication US9101630B2, “Use of PDGF-R inhibitors for the treatment of lymph node metastasis of gastric cancer” (priority 2010, dated 2015).
Structures can show the parent of a compound that is named as a salt.

System: TMK-1 human gastric carcinoma cells implanted into the stomachs of nude mice
Experiment: Treatment of established human gastric cancer tumors growing in murine gastric walls; Lyve-1 immunohistochemical determination of the area of lymphatic vessels
Format: in vivo, athymic BALB/c nude mice
Conditions: TMK-1 orthotopic gastric tumors in nude mice, imatinib mesylate 50 mg/kg daily oral gavage for 28 days, started 14 days after implantation, versus control (water), P<0.05
Excerpt: Animals and orthotopic implantation of tumor cells. Male athymic BALB/c nude mice (Charles River Japan, Tokyo) were maintained under specific pathogen-free conditions and used at 5 weeks of age. Subconfluent gastric cancer cells (TMK-1 or KKLS cells) to be used for implantation were harvested by brief treatment with 0.25% trypsin and 0.02% ethylenediamine tetraacetic acid, and then re-suspended to a final concentration of 2.0×10^7 cells/mL Hanks' solution. With the use of a 30-gauge needle attached to a 1-mL syringe, cells (1×10^6 cells in 50 μl) were implanted into the gastric walls in the nude mice under observation with a zoom stereomicroscope. […]
Treatment of established human gastric cancer tumors growing in murine gastric walls. Fourteen days after orthotopic implantation of TMK-1 cells, mice (n=10 each group) were randomly assigned to receive one of the following two treatments daily oral gavage of water (control group) or daily oral gavage of imatinib mesylate (50 mg/kg, optimal biological dose as determined previously (Hwang R F, et al. Clin Cancer Res 2003; 9: 6534-44) The treatments continued for 28 days. All therapy experiments were performed twice. The mice bearing orthotopic tumors were euthanised by methophane on day 29. For immunohistochemistry, the tumor tissues were fixed in formalin and embedded in paraffin. […]

## Cc1ccc(NC(=O)c2ccc(CN3CCN(C)CC3)cc2)cc1Nc1nccc(-c2cccnc2)n1 [imatinib mesylate]
  area of lymphatic vessels in tumors (Lyve-1 immunohistochemistry): reduced areas of lymphatic vessels
Listed as imatinib
  area of lymphatic vessels in tumors (Lyve-1 immunohistochemistry): significantly reduced the area of lymphatic vessels
